Source: US7432360B2, “Multi-dose erythropoietin formulations” (Aventis Pharmaceuticals Inc., priority 2005, dated 2008)
Where two headings read alike, the source gives them in different places.

How the values were obtained:
[1] = Appearance of the solution when the preservative is used in the EPO formulation; type: physicochemical
Method: Multi-dose EPO-containing solutions were formulated as sterile, non-pyrogenic, colorless aqueous solutions in water for injection at 10,000 units and 20,000 units concentration. Solutions prepared contained a 20 mM phosphate buffer (sodium phosphate monobasic monohydrate, and sodium phosphate dibasic heptahydrate), 0.01% w/v polysorbate 20 as an antiadsorbent, 0.45-0.8% w/v sodium chloride (depending on the preservative system that was used, the amount of sodium chloride was adjusted to produce an Osmolality of approximately 300 mOsm/kg), and a preservative system.

[2] = tested on: indicator aerobic bacteria and molds; assay: Preservative challenge test (USP and EP criteria); type: cell-based; details: in the EPO formulation
[3] = Stability of EPO in preserved formulations, reverse phase HPLC assay (% label claim); type: physicochemical; details: in the presence of thimerosal
Method: Prototype batches were made using these selected preservatives and placed on stability at 5° C. and 25° C. Samples were tested by a reverse phase HPLC method.
Detection of the EPO protein was monitored at 210 nm.

[4] = pH>3; cited from earlier work
[5] = preservative in EPO formulation (phosphate buffer, polysorbate 20, sodium chloride, pH approx. 7.0)

| SMILES | appearance of solution [1, 5] | further results |
| --- | --- | --- |
| COC(=O)c1ccc(O)cc1 [Methyl paraben] | hazy to cloudy |  |
| C[CH2][Hg][S]c1ccccc1C(=O)[O-].[Na+] [Thimerosal] | clear | preservative efficacy [2]: good preservative efficacy; chemical stability of the EPO formulation [3]: good chemical stability |
| CC(C)(O)C(Cl)(Cl)Cl [chlorobutanol] |  | stability of chlorobutanol [4]: not stable |
| Cc1cccc(O)c1 [m-cresol] | hazy to cloudy |  |
| Oc1ccccc1 [phenol] |  | appearance of solution [1]: hazy to cloudy |
| O=[N+]([O-])[O-].[Hg+][c]1ccccc1 [phenyl mercuric nitrate] | cloudy |  |
| CCCOC(=O)c1ccc(O)cc1 [propyl paraben] | hazy to cloudy |  |
